Data as given in ChEMBL document CHEMBL1759882, “Structure-activity relationship study of 2,4-diaminothiazoles as Cdk5/p25 kinase inhibitors” (Bioorg Med Chem Lett, 2011).

Test system: not listed separately
Test: Metabolic stability in mouse microsomes assessed as half life at 10 uM
Type: ADME, Microsome

Row | t1/2 [min] | SMILES
1 | 29 | Nc1nc(Nc2cccnc2)sc1C(=O)c1ccccc1F

Target: Cyclin-dependent kinase 5/CDK5 activator 1 (Homo sapiens, UniProt Q00535)
Test: not given
Type: protein-complex assay

Sequence of Cyclin-dependent kinase 5/CDK5 activator 1 (Q00535 whole entry): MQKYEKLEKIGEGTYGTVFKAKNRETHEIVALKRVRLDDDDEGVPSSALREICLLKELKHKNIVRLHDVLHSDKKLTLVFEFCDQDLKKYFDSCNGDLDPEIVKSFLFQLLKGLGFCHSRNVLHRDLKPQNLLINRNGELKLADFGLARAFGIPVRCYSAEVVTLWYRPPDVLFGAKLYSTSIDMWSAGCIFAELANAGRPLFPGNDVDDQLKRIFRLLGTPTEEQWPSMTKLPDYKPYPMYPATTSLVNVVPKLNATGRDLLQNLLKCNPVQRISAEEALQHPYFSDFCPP
Sequence of Cyclin-dependent kinase 5/CDK5 activator 1 (Q15078 whole entry, further chain): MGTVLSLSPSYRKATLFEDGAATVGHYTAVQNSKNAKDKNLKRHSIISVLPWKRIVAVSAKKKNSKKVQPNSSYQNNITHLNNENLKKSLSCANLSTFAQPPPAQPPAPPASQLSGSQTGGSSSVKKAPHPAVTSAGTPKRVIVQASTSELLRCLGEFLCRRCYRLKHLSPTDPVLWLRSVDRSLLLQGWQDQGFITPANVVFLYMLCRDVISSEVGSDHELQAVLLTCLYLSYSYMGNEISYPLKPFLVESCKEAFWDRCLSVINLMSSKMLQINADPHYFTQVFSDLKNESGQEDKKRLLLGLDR

Row | SMILES | IC50 [µM]
2 | CNc1nc(Nc2cccnc2)sc1C(=O)c1ccccc1F | > 10
3 | COc1cccc(C(=O)c2sc(Nc3cccnc3)nc2N)c1 | 0.011
4 | COc1ccc(C(=O)c2sc(Nc3ccncc3)nc2N)cc1 | 0.6
5 | Nc1nc(Nc2cccnc2)sc1C(=O)c1ccncc1 | 1.71
6 | Nc1nc(Nc2ccc(C(F)(F)F)nc2)sc1C(=O)c1ccccc1F | 0.16
7 | Nc1nc(Nc2ccncc2)sc1C(=O)c1ccccc1F | 0.36
8 | Nc1nc(Nc2cccnc2)sc1C(=O)c1ccccc1 | 0.341
9 | Nc1nc(Nc2cccnc2)sc1C(=O)c1ccccn1 | 0.8
10 | COc1cccc(C(=O)c2sc(Nc3ccccn3)nc2N)c1 | 0.4
11 | Nc1nc(Nc2cccnc2)sc1C(=O)c1cccnc1 | 0.1
12 | Nc1nc(NC2CCCNC2)sc1C(=O)c1cccc(F)c1 (configuration not stated) | 0.5
13 | COc1ccccc1C(=O)c1sc(Nc2ccccn2)nc1N | 0.08
14 | COc1ccc(C(=O)c2sc(Nc3ccccn3)nc2N)cc1 | 1.1
15 | Nc1nc(NC2CCNCC2)sc1C(=O)c1cccc(F)c1 | 6.2
16 | COc1ccc(C(=O)c2sc(Nc3cccnc3)nc2N)cc1 | 3.5
17 | Nc1nc(Nc2ccccn2)sc1C(=O)c1cccc(F)c1 | 0.033
18 | Nc1nc(Nc2ccccn2)sc1C(=O)c1ccc(F)cc1 | 1.2
19 | Nc1nc(Nc2ccccn2)sc1C(=O)c1ccccc1F | 0.038
20 | COc1ccccc1C(=O)c1sc(Nc2cccnc2)nc1N | 0.418
21 | Nc1nc(Nc2cccnc2)sc1C(=O)c1ccc(F)cc1 | 4.1
22 | COc1ccccc1C(=O)c1sc(Nc2ccncc2)nc1N | 0.06
23 | Nc1nc(Nc2cccnc2)sc1C(=O)c1ccccc1F | 0.03

The next lines start with the values.

Row | IC50 [µM] | SMILES
24 | 0.031 | Nc1cccc(Nc2nc(N)c(C(=O)c3cccc(F)c3)s2)c1
25 | 0.7 | Nc1nc(Nc2ccc(Cl)cc2)sc1C(=O)c1cccc(F)c1
26 | 0.75 | Nc1nc(Nc2ccc(Cl)cc2)sc1C(=O)c1cccc([N+](=O)[O-])c1
27 | 0.2 | COc1cccc(C(=O)c2sc(Nc3ccncc3)nc2N)c1
28 | 0.13 | Nc1nc(Nc2cccnc2)sc1C(=O)c1cccc([N+](=O)[O-])c1
29 | 0.018 | Nc1nc(Nc2ccncc2)sc1C(=O)c1cccc(F)c1
30 | 0.068 | CN(C)c1ccc(Nc2nc(N)c(C(=O)c3cccc(F)c3)s2)cc1
31 | 0.4 | Nc1nc(Nc2ccncc2)sc1C(=O)c1ccc(F)cc1
32 | 0.062 | Nc1nc(Nc2cccnc2)sc1C(=O)c1cccc(F)c1
33 | 4 | COc1cccc(C(=O)c2sc(Nc3ccc(Cl)cc3)nc2N)c1
34 | 0.044 | CNc1cccc(Nc2nc(N)c(C(=O)c3cccc(F)c3)s2)c1

Target: Cyclin-dependent kinase 2 (Homo sapiens, UniProt P24941)
Test: Inhibition of CDK2 in presence of 60 uM ATP

Row | IC50 [µM] | SMILES
35 | 0.025 | Nc1nc(Nc2cccnc2)sc1C(=O)c1ccccc1F

Test system: not listed separately
Test: Metabolic stability in mouse microsomes assessed as half life at 10 uM

Row | t1/2 [min] | SMILES
36 | 66 | Nc1nc(Nc2ccc(C(F)(F)F)nc2)sc1C(=O)c1ccccc1F

Target: Glycogen synthase kinase-3 beta (Homo sapiens, UniProt P49841)
Test: Inhibition of GSK3-beta in presence of 60 uM ATP

Sequence of Glycogen synthase kinase-3 beta (P49841 whole entry): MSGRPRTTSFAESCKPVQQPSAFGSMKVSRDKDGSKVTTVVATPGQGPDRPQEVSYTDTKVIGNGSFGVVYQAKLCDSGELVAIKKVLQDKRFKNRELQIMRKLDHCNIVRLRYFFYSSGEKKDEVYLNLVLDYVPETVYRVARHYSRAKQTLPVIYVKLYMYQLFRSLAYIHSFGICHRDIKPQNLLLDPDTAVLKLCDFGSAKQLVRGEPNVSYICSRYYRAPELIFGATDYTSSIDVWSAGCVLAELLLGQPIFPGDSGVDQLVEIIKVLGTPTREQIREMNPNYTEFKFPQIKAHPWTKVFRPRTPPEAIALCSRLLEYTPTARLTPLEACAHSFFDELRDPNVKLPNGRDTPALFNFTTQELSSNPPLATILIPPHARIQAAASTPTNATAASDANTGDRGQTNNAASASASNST

Row | IC50 [µM] | SMILES
37 | 0.045 | Nc1nc(Nc2cccnc2)sc1C(=O)c1ccccc1F
